Results reported in patent US20150105252A1, “SUBSTITUTED PYRAZOLES AS HERBICIDES” (E I DU PONT DE NEMOURS AND COMPANY, priority 2013, published 2015).

What was measured:
ducksalad [1] = assay: Test C flooded paddy test; type: in vivo, Heteranthera limosa; settings: Flood
Summary of the method: (§1)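 Under a constant 3 cm flood, test compounds went directly into the paddy water. Following 13 to 15 days of greenhouse growth, treated species and controls were compared by eye.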

velvetleaf [2] = assay: Test A postemergence; type: in vivo, Abutilon theophrasti
Summary of the method: (§2)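 Scoring was visual, on a scale where 100 means complete control and 0 means no effect, comparing treated with untreated plants around 10 days post-application. Compounds in surfactant-containing non-phytotoxic solvent were sprayed onto soil preemergence or onto one- to two-leaf seedlings (2–10 cm) postemergence.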

ducksalad [3] = assay: Test B flood; type: in vivo, Heteranthera limosa; settings: 250 g ai/ha, visual rating on 0 to 100 scale (0 no effect, 100 complete control), 13 to 15 days
Summary of the method: (§3)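 Plants were grown to the 2-leaf stage, then pots were flooded to 3 cm above the soil and compounds were applied directly into the paddy water. Water depth was held for the whole test; after 13 to 15 days in a greenhouse, injury was visually rated against untreated controls (0 = no effect, 100 = complete control).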

barnyardgrass [4] = assay: Test B flood; type: in vivo, Echinochloa crus-galli; settings: 250 g ai/ha, visual rating on 0 to 100 scale (0 no effect, 100 complete control), 13 to 15 days
Summary of the method: as §3

rice [5] = assay: Test C flooded paddy test; type: in vivo, Oryza sativa; settings: Flood
Summary of the method: as §1

wheat [6] = assay: Test A preemergence; type: in vivo, Triticum aestivum; settings: preemergence
Summary of the method: as §2

velvetleaf [7] = assay: Test A preemergence; type: in vivo, Abutilon theophrasti; settings: preemergence
Summary of the method: as §2

corn [8] = assay: Test A postemergence; type: in vivo, Zea mays
Summary of the method: as §2

foxtail, giant [9] = assay: Test A preemergence; type: in vivo, Setaria faberii; settings: preemergence
Summary of the method: as §2

crabgrass, large [10] = assay: Test A preemergence; type: in vivo, Digitaria sanguinalis; settings: preemergence
Summary of the method: as §2

foxtail, giant [11] = assay: Test A postemergence; type: in vivo, Setaria faberii
Summary of the method: as §2

barnyardgrass [12] = assay: Test C flooded paddy test; type: in vivo, Echinochloa crus-galli; settings: Flood
Summary of the method: as §1

corn [13] = assay: Test A preemergence; type: in vivo, Zea mays; settings: preemergence
Summary of the method: as §2

rice [14] = assay: Test B flood; type: in vivo, Oryza sativa; settings: 250 g ai/ha, visual rating on 0 to 100 scale (0 no effect, 100 complete control), 13 to 15 days
Summary of the method: as §3

pigweed [15] = assay: Test A preemergence; type: in vivo, Amaranthus retroflexus; settings: preemergence
Summary of the method: as §2

crabgrass, large [16] = assay: Test A postemergence; type: in vivo, Digitaria sanguinalis
Summary of the method: as §2

morningglory [17] = assay: Test A preemergence; type: in vivo, Ipomoea spp.; settings: preemergence
Summary of the method: as §2

barnyardgrass [18] = assay: Test A preemergence; type: in vivo, Echinochloa crus-galli; settings: preemergence
Summary of the method: as §2

pigweed [19] = assay: Test A postemergence; type: in vivo, Amaranthus retroflexus
Summary of the method: as §2

sedge, umbrella [20] = assay: Test C flooded paddy test; type: in vivo, Cyperus difformis; settings: Flood
Summary of the method: as §1

barnyardgrass [21] = assay: Test A postemergence; type: in vivo, Echinochloa crus-galli
Summary of the method: as §2

wheat [22] = assay: Test A postemergence; type: in vivo, Triticum aestivum
Summary of the method: as §2

sedge, umbrella [23] = assay: Test B flood; type: in vivo, Cyperus difformis; settings: 250 g ai/ha, visual rating on 0 to 100 scale (0 no effect, 100 complete control), 13 to 15 days
Summary of the method: as §3

morningglory [24] = assay: Test A postemergence; type: in vivo, Ipomoea spp.
Summary of the method: as §2

Italian ryegrass [25] = assay: Test A postemergence; type: in vivo, Lolium multiflorum
Excerpt: (§4) Seeds of plant species selected from barnyardgrass (Echinochloa crus-galli), kochia (Kochia scoparia), common ragweed (Ambrosia elation), Italian ryegrass (Lolium multiflorum), crabgrass, large (large crabgrass, Digitaria sanguinalis), foxtail, giant (giant foxtail, Setaria faberii), morningglory (Ipomoea spp.), pigweed (redroot pigweed, Amaranthus retroflexus), velvetleaf (Abutilon theophrasti), wheat (Triticum aestivum), and corn (Zea mays) were planted into a blend of loam soil and sand and treated preemergence with a directed soil spray using test chemicals formulated in a non-phytotoxic solvent mixture which included a surfactant.
(§5) At the same time, plants selected from these crop and weed species and also blackgrass (Alopecurus myosuroides), and galium (catchweed bedstraw, Galium aparine) were planted in pots containing the same blend of loam soil and sand and treated with postemergence applications of test chemicals formulated in the same manner. Plants ranged in height from 2 to 10 cm and were in the one- to two-leaf stage for the postemergence treatment. Treated plants and untreated controls were maintained in a greenhouse for approximately 10 days, after which time all treated plants were compared to untreated controls and visually evaluated for injury. Plant response ratings, summarized in Table A, are based on a 0 to 100 scale where 0 is no effect and 100 is complete control. A dash (-) response means no test result.

common ragweed [26] = assay: Test A postemergence; type: in vivo, Ambrosia elation
Excerpt: as §4, §5

common ragweed [27] = assay: Test A preemergence; type: in vivo, Ambrosia elation; settings: 125 g ai/ha, visual injury, 0 to 100 scale, approx. 10 days
Excerpt: as §4, §5

Italian ryegrass [28] = assay: Test A preemergence; type: in vivo, Lolium multiflorum
Excerpt: as §4, §5

kochia [29] = assay: Test A postemergence; type: in vivo, Kochia scoparia
Excerpt: as §4, §5

blackgrass = assay: Test A postemergence; type: in vivo, Alopecurus myosuroides
Excerpt: as §4, §5

galium = assay: Test A postemergence; type: in vivo, Galium aparine
Excerpt: as §4, §5

kochia [30] = assay: Test A preemergence; type: in vivo, Kochia scoparia
Excerpt: as §4, §5

[31] = 31 g ai/ha, scale 0 to 100 (0 no effect, 100 complete control)
[32] = 62 g ai/ha, scale 0 to 100 (0 no effect, 100 complete control)
[33] = Postemergence, 500 g ai/ha, visual rating after approx. 10 days, 0 to 100 scale (0 no effect, 100 complete control)
[34] = postemergence, 125 g ai/ha, about 10 days, visual rating on 0 to 100 scale (0 no effect, 100 complete control)
[35] = 125 g ai/ha, visual injury, 0 to 100 scale, approx. 10 days
[36] = 500 g ai/ha, visual injury after approx. 10 days, 0 to 100 scale (0 no effect, 100 complete control)
[37] = Postemergence, 500 g ai/ha, 0 to 100 scale (0 no effect, 100 complete control)

CCc1cc(C(=O)NCC(F)(F)F)nn1Cc1ccnc(OCC(F)(F)F)c1 [Compound 106]
Plant response rating, Ducksalad (ducksalad [1]; [31]): 40 | Plant response rating, Ducksalad (ducksalad [1]; [32]): 50 | Plant response rating, Ducksalad (ducksalad [1]; 125 g ai/ha, scale 0 to 100): 70 | Plant response rating, Ducksalad (ducksalad [1]; 250 g ai/ha, scale 0 to 100): 70 | Velvetleaf plant response rating (velvetleaf [2]; [33]): 70 | Velvetleaf plant response rating (velvetleaf [2]; [34]): 40 | Plant response rating, Ducksalad (ducksalad [3]): 90 | Plant response rating, Barnyardgrass (barnyardgrass [4]): 30 | Plant response rating, Rice (rice [5]; [31]): 0 | Plant response rating, Rice (rice [5]; [32]): 0 | Plant response rating, Rice (rice [5]; 125 g ai/ha, scale 0 to 100): 0 | Plant response rating, Rice (rice [5]; 250 g ai/ha, scale 0 to 100): 0 | Wheat plant response rating (wheat [6]; [35]): 10 | Wheat plant response rating (wheat [6]; [36]): 30 | Velvetleaf plant response rating (velvetleaf [7]; [35]): 10 | Velvetleaf plant response rating (velvetleaf [7]; [36]): 100 | Corn plant response rating (corn [8]; [33]): 60 | Corn plant response rating (corn [8]; [34]): 30 | Foxtail, Giant plant response rating (foxtail, giant [9]; [35]): 100 | Foxtail, Giant plant response rating (foxtail, giant [9]; [36]): 100 | Crabgrass, Large plant response rating (crabgrass, large [10]; [35]): 100 | Crabgrass, Large plant response rating (crabgrass, large [10]; [36]): 100 | Foxtail, Giant plant response rating (foxtail, giant [11]; [33]): 80 | Foxtail, Giant plant response rating (foxtail, giant [11]; [34]): 50 | Plant response rating, Barnyardgrass (barnyardgrass [12]; [31]): 0 | Plant response rating, Barnyardgrass (barnyardgrass [12]; [32]): 0 | Plant response rating, Barnyardgrass (barnyardgrass [12]; 125 g ai/ha, scale 0 to 100): 20 | Plant response rating, Barnyardgrass (barnyardgrass [12]; 250 g ai/ha, scale 0 to 100): 30 | Corn plant response rating (corn [13]; [35]): 20 | Corn plant response rating (corn [13]; [36]): 30 | Plant response rating, Rice (rice [14]): 20 | Pigweed plant response rating (pigweed [15]; [35]): 100 | Pigweed plant response rating (pigweed [15]; [36]): 100 | Crabgrass, Large plant response rating (crabgrass, large [16]; [33]): 90 | Crabgrass, Large plant response rating (crabgrass, large [16]; [34]): 50 | Morningglory plant response rating (morningglory [17]; [35]): 30 | Morningglory plant response rating (morningglory [17]; [36]): 100 | Barnyardgrass plant response rating (barnyardgrass [18]; [35]): 50 | Barnyardgrass plant response rating (barnyardgrass [18]; [36]): 100 | Pigweed plant response rating (pigweed [19]; [33]): 100 | Pigweed plant response rating (pigweed [19]; [34]): 90 | Plant response rating, Sedge, Umbrella (sedge, umbrella [20]; [31]): 70 | Plant response rating, Sedge, Umbrella (sedge, umbrella [20]; [32]): 85 | Plant response rating, Sedge, Umbrella (sedge, umbrella [20]; 125 g ai/ha, scale 0 to 100): 95 | Plant response rating, Sedge, Umbrella (sedge, umbrella [20]; 250 g ai/ha, scale 0 to 100): 98 | Barnyardgrass plant response rating (barnyardgrass [21]; [33]): 80 | Barnyardgrass plant response rating (barnyardgrass [21]; [34]): 50 | Wheat plant response rating (wheat [22]; [33]): 40 | Wheat plant response rating (wheat [22]; [34]): 10 | Plant response rating, Sedge, Umbrella (sedge, umbrella [23]): 90 | Morningglory plant response rating (morningglory [24]; [33]): 100 | Morningglory plant response rating (morningglory [24]; [34]): 50

CCCNC(=O)c1cc(CC)n(Cc2cc(C(F)(F)F)no2)n1 [Compound 122]
Italian Ryegrass plant response rating (Italian ryegrass [25]; [37]): 50 | Italian Ryegrass plant response rating (Italian ryegrass [25]; [34]): 10 | Plant response rating, Ducksalad (ducksalad [3]): 50 | Plant response rating, Barnyardgrass (barnyardgrass [4]): 20 | Corn plant response rating (corn [8]; [37]): 60 | Corn plant response rating (corn [8]; [34]): 20 | Foxtail, Giant plant response rating (foxtail, giant [9]; [35]): 20 | Foxtail, Giant plant response rating (foxtail, giant [9]; [36]): 100 | Foxtail, Giant plant response rating (foxtail, giant [11]; [37]): 90 | Foxtail, Giant plant response rating (foxtail, giant [11]; [34]): 0 | Plant response rating, Rice (rice [14]): 30 | Common Ragweed plant response rating (common ragweed [26]; [37]): 30 | Common Ragweed plant response rating (common ragweed [26]; [34]): 10 | Pigweed plant response rating (pigweed [15]; [35]): 60 | Pigweed plant response rating (pigweed [15]; [36]): 100 | Common Ragweed plant response rating (common ragweed [27]): 10 | Italian Ryegrass plant response rating (Italian ryegrass [28]; [35]): 0 | Italian Ryegrass plant response rating (Italian ryegrass [28]; [36]): 30 | Kochia plant response rating (kochia [29]; [37]): 90 | Kochia plant response rating (kochia [29]; [34]): 50 | Barnyardgrass plant response rating (barnyardgrass [18]; [35]): 0 | Barnyardgrass plant response rating (barnyardgrass [18]; [36]): 100 | Pigweed plant response rating (pigweed [19]; [37]): 40 | Pigweed plant response rating (pigweed [19]; [34]): 30 | Blackgrass plant response rating (blackgrass; [37]): 80 | Blackgrass plant response rating (blackgrass; [34]): 10 | Barnyardgrass plant response rating (barnyardgrass [21]; [37]): 70 | Barnyardgrass plant response rating (barnyardgrass [21]; [34]): 0 | Wheat plant response rating (wheat [22]; [37]): 10 | Wheat plant response rating (wheat [22]; [34]): 0 | Plant response rating, Sedge, Umbrella (sedge, umbrella [23]): 50 | Galium plant response rating (galium; [37]): 70 | Galium plant response rating (galium; [34]): 10 | Kochia plant response rating (kochia [30]; [35]): 10 | Kochia plant response rating (kochia [30]; [36]): 90
